Measured values: article PMC12124432, “Antimicrobial Peptide‐Peptoid Macrocycles from the Polymyxin B2 Chemical Space” (Angewandte Chemie (International Ed. in English), 2025)
In brackets after ≈: the same amount, converted by molar mass. Bridge positions count the residues as written; N and C are the ends. Square brackets hold non-standard residues; d marks the D form. Peptide text beside a SMILES is read from it. * marks the point of attachment. Propanoyl(3-cPent) = O=C(CCC1CCCC1)*; Gly(NCH2CH2Ph) = O=C(O)CNCCc1ccccc1; Cyclopentylacetyl = O=C(CC1CCCC1)*; Gly(N-2-aminoethyl) = NCCNCC(=O)O; Heptanoyl(6-Me) = CC(C)CCCCC(=O)*; Gly(N(CH2)3NH2) = NCCCNCC(=O)O; Gly(N-cHex) = O=C(O)CNC1CCCCC1; Gly(N-CH2CH2OH) = O=C(O)CNCCO; Heptanoyl = CCCCCCC(=O)*; Nphe = O=C(O)CNCc1ccccc1; Octanoyl = CCCCCCCC(=O)*; Dab = NCC[C@H](N)C(=O)O

Legend:
[1] = tested on: P. aeruginosa PAO1; format: cell-based, Pseudomonas aeruginosa; settings: PAO1, pH 8.5
Experimental: (§1) Minimal Inhibitory Concentration (MIC)
(§2) Antimicrobial activity was assayed for all the peptide-peptoids against P. aeruginosa PAO1, K. pneumoniae NCTC418, E. coli W3110, A. baumannii ATCC 19606, methicillin-resistant S. aureus COL (MRSA) and for selected peptides on P. aeruginosa PA14, as well as the clinical isolates ZEM-1A and ZEM9A, K. pneumoniae OXA-48, Enterobacter cloacae, Stenotrophomonas maltophilia and Staphylococus epidermidis. To determine the Minimal Inhibitory Concentration (MIC), Broth Microdilution method was used. A colony of bacteria was picked and grown in LB medium overnight at 37 °C. The next day, the culture was then regrown in LB medium to log phase (OD600 = 0.6 to 0.8), which lasted approximately 4 hours, and diluted to an OD600 of 0.022 in the desired medium (full MH or 12.5% MH).
(§3) The compounds were prepared as stock solutions of 2 mg/mL in sterilized MilliQ deionized water and then diluted in the desired media (full MH or 12.5% MH) to reach the first concentration tested (32 μg/mL). The compounds were added to the first well of a 96-well sterile, round bottom microtiter plates in polystyrene (TPP®, untreated) and diluted serially by ½ in the desired media (full MH or 12.5% MH), to a final volume of 150 µL/well. To each well was finally added 4 µL of the diluted bacterial suspension (see above), corresponding to approximately 5×10^5 CFU. For each test, two columns of the plate were kept for sterility control (medium only), growth control (medium with bacterial inoculum, no compound). The positive control, Polymyxin B (starting with a concentration of 16 µg/mL) in MH medium with bacterial inoculums, was introduced in the two first lines of the plate. The plates were incubated at 37 °C for ca. 18 hours under static conditions. 15 µL of 3-(4,5-dimethylthiazol-2-yl)-2,5-diphenyltetrazolium bromide (MTT)[7] (1 mg/mL in sterilized MilliQ deionized water) were added to each well and the plates were incubated for 20-30 minutes at room temperature. The […]
(§4) minimal inhibitory concentration (MIC) was defined as the lowest concentration of the compound that inhibits the visible growth of the tested bacteria (yellow) with the unaided eye.
(§5) Minimal Hemolytic Concentration (MHC) […]
(§6) 11. Minimal inhibitory in presence of salt
The same procedure as for the antibacterial activity measurements by minimal inhibitory concentration assay (MIC) was applied. The media, 12.5% Mueller-Hinton broth was this time supplemented with different salt concentrations (0, 100, 200 300 mM NaCl). The MIC activities were then determined against Pseudomonas aeruginosa PAO1 and Escherichia coli […]
Table S6. Minimal inhibitory concentration (MIC) on P. aeruginosa PAO1 as function of salt […]
(§7) All data, in μg/mL, measured against P. aeruginosa PAO1, with or without addition of salt (NaCl). The values were measured in dilute medium (12.5% MH) and at slightly basic pH (pH = 8.5), after incubation for 16-20 h at 37 °C. Values represent two different duplicate MIC determinations.

[2] = tested on: E. coli W3110; format: cell-based, Escherichia coli; settings: W3110, pH 8.5
Experimental: as §1, §2, §3, §4, §5, §6
The same procedure as for the antibacterial activity measurements by minimal inhibitory concentration assay (MIC) was applied. The media, 12.5% Mueller-Hinton broth was this time supplemented with different salt concentrations (0, 100, 200 300 mM NaCl). […]
as §7

Row | Structure (SMILES) | MIC on P. aeruginosa, 0 mM NaCl [1] [µg/mL] | MIC on P. aeruginosa, 100 mM NaCl [1] [µg/mL] | MIC on P. aeruginosa, 200 mM NaCl [1] [µg/mL] | MIC on P. aeruginosa, 300 mM NaCl [1] [µg/mL] | MIC on E. coli, 0 mM NaCl [2] [µg/mL] | MIC on E. coli, 100 mM NaCl [2] [µg/mL] | MIC on E. coli, 200 mM NaCl [2] [µg/mL] | MIC on E. coli, 300 mM NaCl [2] [µg/mL]
1 | CC(C)[C@@H]1NC(=O)[C@H](CCCCN)NC(=O)CN(CCN)C(=O)[C@H](CC(N)=O)NC(=O)[C@@H](NC(=O)CN(CCN)C(=O)[C@H](CCCCN)NC(=O)CN(CCc2ccccc2)C(=O)CC2CCCC2)CCNC(=O)[C@H](CCCCN)NC1=O [EB20] (Cyclopentylacetyl-[Gly(NCH2CH2Ph)]K[Gly(N-2-aminoethyl)][Dab]N[Gly(N-2-aminoethyl)]KVK; lactam 4-C; N-terminus assumed) | 16 (≈ 13.7 µM) | > 64 | > 64 | > 64 | 1 (≈ 0.855 µM) | 64 (≈ 54.7 µM) | > 64 | > 64
2 | CCCCCCC(=O)N(CC(=O)N(CCCN)CC(=O)N(CCN)CC(=O)N[C@H]1CCNC(=O)[C@H](CCCCN)NC(=O)CN(C2CCCCC2)C(=O)CN(CCN)C(=O)[C@H](CCC(N)=O)NC(=O)[C@H](CCCNC(=N)N)NC1=O)Cc1ccccc1 [EB23] (Heptanoyl-[Nphe][Gly(N(CH2)3NH2)][Gly(N-2-aminoethyl)][Dab]RQ[Gly(N-2-aminoethyl)][Gly(N-cHex)]K; lactam 4-C) | 16 (≈ 13.1 µM) | > 64 | > 64 | > 64 | 2 (≈ 1.63 µM) | > 64 | > 64 | > 64
3 | CCCCCCCC(=O)N(CCN)CC(=O)N[C@@H](Cc1ccc(O)cc1)C(=O)N[C@@H](CCCCN)C(=O)N[C@H]1CCNC(=O)[C@H](CCCCN)NC(=O)CN(CCN)C(=O)[C@H](CCCNC(=N)N)NC(=O)[C@H](CCCCN)NC1=O [EB14] (Octanoyl-[Gly(N-2-aminoethyl)]YK[Dab]KR[Gly(N-2-aminoethyl)]K; lactam 4-C) | 4 (≈ 3.54 µM) | > 64 | > 64 | > 64 | 1 (≈ 0.885 µM) | 16 (≈ 14.2 µM) | 64 (≈ 56.6 µM) | > 64

Further lines, results first:

Row | MIC on P. aeruginosa, 0 mM NaCl [1] [µg/mL] | MIC on P. aeruginosa, 100 mM NaCl [1] [µg/mL] | MIC on P. aeruginosa, 200 mM NaCl [1] [µg/mL] | MIC on P. aeruginosa, 300 mM NaCl [1] [µg/mL] | MIC on E. coli, 0 mM NaCl [2] [µg/mL] | MIC on E. coli, 100 mM NaCl [2] [µg/mL] | MIC on E. coli, 200 mM NaCl [2] [µg/mL] | MIC on E. coli, 300 mM NaCl [2] [µg/mL] | Structure (SMILES)
4 | 32 (≈ 27.1 µM) | > 64 | > 64 | > 64 | 4 (≈ 3.38 µM) | > 64 | > 64 | > 64 | NCCCC[C@@H]1NC(=O)CN(CCO)C(=O)[C@@H]2CCCN2C(=O)CN(CCCN)C(=O)[C@@H](NC(=O)[C@H](CC(N)=O)NC(=O)[C@H](CCCCN)NC(=O)[C@H](CCCCN)NC(=O)CN(Cc2ccccc2)C(=O)CCC2CCCC2)CCNC1=O [EB32] ({Propanoyl(3-cPent)}-[Nphe]KKN[Dab][Gly(N(CH2)3NH2)]P[Gly(N-CH2CH2OH)]K; lactam 5-C)
5 | 0.5 (≈ 0.42 µM) | 0.25 (≈ 0.21 µM) | 0.25 (≈ 0.21 µM) | 0.25 (≈ 0.21 µM) | 0.25 (≈ 0.21 µM) | 0.25 (≈ 0.21 µM) | 0.25 (≈ 0.21 µM) | 0.25 (≈ 0.21 µM) | CC(C)CCCCC(=O)N[C@@H](CCN)C(=O)N[C@H](C(=O)N[C@@H](CCN)C(=O)N[C@H]1CCNC(=O)[C@H]([C@@H](C)O)NC(=O)[C@H](CCN)NC(=O)[C@H](CCN)NC(=O)[C@H](CC(C)C)NC(=O)[C@@H](Cc2ccccc2)NC(=O)[C@H](CCN)NC1=O)[C@@H](C)O [PMB2, polymyxin B2] ({Heptanoyl(6-Me)}-[Dab]T[Dab][Dab][Dab][dF]L[Dab][Dab]T; lactam 4-C)
